{
  "source": "patent US20080039442A1",
  "about": "“Compounds With Kv4 Ion Channel Activity” (Devgen NV, priority 2004, published 2008)",
  "key": {"isolated rat left atria": {"tested_on": "isolated rat left atria", "experiment": "Ex-vivo functional refractory period in isolated rat left atria", "details": "conc 10^−5 mol/l", "text": "(§1) The compounds were checked for their effect on the force of contraction, stimulation threshold and for the Functional Refractory Period (FRP) in isolated rat left atria (Rat LA). Rat left atria functionally express the Kv4.3 ion channel, producing the Ito current of the action potential. […] The guinea pig action potential is dominated by hERG like ion channels for the refractory currents. Consequently, activity of hERG channels in vivo should be seen in GP papillary muscle preparations.\nLeft atria were mounted vertically in a two-chambered organ bath containing 100 ml of buffer solution (in mM: NaH2PO4 0.6, MgSO4 0.6, KCl 4.7, NaHCO3 25, glucose 4.5, NaCl 120, CaCl2 2.4). […] The isometric force of the preparations was measured by force transducers, connected to amplifiers, documented by a pen recorder and fed into a computer for evaluation. Force of contraction (FC), threshold stimulus (TS) and the functional refractory period (FRP) were measured at baseline (pre), 20 min after addition of compound, and after washout at the end of the experiment. Threshold stimulus, representing excitability of the tissue, was assessed by varying the voltage applied for electrical stimulation. […] The functional refractory period, representing the time needed for repolarization, was assessed by applying extra stimuli at varying time intervals from the preceding regular pacing stimulus. […]"}, "[1]": {"tested_on": "isolated guinea pig right ventricular papillary muscle", "experiment": "Ex-vivo functional refractory period in isolated guinea pig papillary muscle", "details": "conc 10^−5 mol/l", "text": "as §1\nMethod: Rat LA (Same Method Applies to GP Pap. Muscle)\nLeft atria were mounted vertically in a two-chambered organ bath containing 100 ml of buffer solution (in mM: NaH2PO4 0.6, MgSO4 0.6, KCl 4.7, NaHCO3 25, glucose 4.5, NaCl 120, CaCl2 2.4). The solution was saturated with and circulated by a gas mixture containing 95% O2 and 5% CO2. The temperature was kept constant at 30° C. […] The isometric force of the preparations was measured by force transducers, connected to amplifiers, documented by a pen recorder and fed into a computer for evaluation. Force of contraction (FC), threshold stimulus (TS) and the functional refractory period (FRP) were measured at baseline (pre), 20 min after addition of compound, and after washout at the end of the experiment. Threshold stimulus, representing excitability of the tissue, was assessed by varying the voltage applied for electrical stimulation. […]"}, "[2]": {"tested_on": "conscious telemetric mice", "experiment": "Telemetric ECG in conscious mice, consecutive i.p. dosing", "type": "in vivo, mice (NRMI)", "protocol": "Male mice (NRMI) were anesthetized with a gas mixture of isoflurane, nitrous oxide and oxigen. Leads connected to a telemetry transmitter (TA10EA-F20, DSI, St. Paul, USA) were fixed by suture in the xiphoid and ventral neck region. The telemetry transmitter was placed under the skin on the back. Wounds were closed in layers and the animals were allowed to recover for at least 1 week.\nOn the day of the experiment the animals receive consecutive doses of vehicle i.p. at 60 min dosing intervals. ECG tracings (12 s duration) was recorded using the Data Sciences A.R.T. system. After completion of the experiment ECGs were analyzed automatically by Data Sciences ECG software (DSI, St. Paul, USA). QT and QRS intervals were measured manually in the stored ECGs. QTc was calculated from the QT interval and the corresponding heart rate using Bazett's formula. Heart rate was taken from the online analysis, given by the DSI Labpro and DSI A.R.T. systems (DSI, St. Paul, USA). Finally, ECG intervals were transferred to an Excel spreadsheet, checked for plausibility, and converted into 15 min averages."}, "hERG potassium channel": {"molecular_target": "hERG potassium channel (Homo sapiens, UniProt Q12809)", "sequence (Q12809 whole entry)": "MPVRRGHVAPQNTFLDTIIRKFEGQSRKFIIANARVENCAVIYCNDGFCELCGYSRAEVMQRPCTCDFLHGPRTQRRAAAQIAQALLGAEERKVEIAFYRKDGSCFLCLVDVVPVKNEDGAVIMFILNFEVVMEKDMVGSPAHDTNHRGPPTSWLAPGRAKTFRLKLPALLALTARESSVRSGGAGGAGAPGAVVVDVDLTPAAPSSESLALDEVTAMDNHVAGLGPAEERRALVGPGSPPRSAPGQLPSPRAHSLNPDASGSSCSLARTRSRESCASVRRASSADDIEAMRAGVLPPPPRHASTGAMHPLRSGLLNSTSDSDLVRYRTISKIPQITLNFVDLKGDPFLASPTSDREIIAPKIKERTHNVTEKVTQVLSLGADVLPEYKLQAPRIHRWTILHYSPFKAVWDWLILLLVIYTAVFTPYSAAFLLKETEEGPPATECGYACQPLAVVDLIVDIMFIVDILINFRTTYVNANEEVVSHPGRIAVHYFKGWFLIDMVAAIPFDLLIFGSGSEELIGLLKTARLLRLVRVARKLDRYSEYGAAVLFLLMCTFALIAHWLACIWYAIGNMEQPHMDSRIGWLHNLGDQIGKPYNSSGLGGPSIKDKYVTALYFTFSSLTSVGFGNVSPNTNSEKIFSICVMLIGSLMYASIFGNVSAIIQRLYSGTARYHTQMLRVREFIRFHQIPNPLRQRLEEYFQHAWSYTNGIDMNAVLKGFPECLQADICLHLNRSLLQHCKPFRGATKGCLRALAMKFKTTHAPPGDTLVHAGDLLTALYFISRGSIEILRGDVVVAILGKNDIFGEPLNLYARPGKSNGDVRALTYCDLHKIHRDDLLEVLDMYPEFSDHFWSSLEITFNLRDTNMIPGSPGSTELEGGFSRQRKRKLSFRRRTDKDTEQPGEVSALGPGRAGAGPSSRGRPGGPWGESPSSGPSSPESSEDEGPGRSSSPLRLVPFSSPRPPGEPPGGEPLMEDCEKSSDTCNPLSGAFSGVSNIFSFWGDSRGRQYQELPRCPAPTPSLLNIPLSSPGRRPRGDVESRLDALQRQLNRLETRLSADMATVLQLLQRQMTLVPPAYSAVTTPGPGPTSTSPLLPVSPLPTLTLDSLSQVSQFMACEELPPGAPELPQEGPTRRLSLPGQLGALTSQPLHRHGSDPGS", "from_the_text": "For this experiment HEK 293 T-REx HERG cells (#23) were used. This cell line made by IonGate is characterized by the inducible expression of the hERG gene. The T-REx™ System (Invitrogen, Karlsruhe, Germany) is a tetracycline-regulated mammalian expression system that uses regulatory elements from the E. coli Tn10-encoded tetracycline (Tet) resistance operon. In the absence of Tet the expression is repressed. Tetracycline regulation in the T-REx™ System is based on the binding of tetracycline to the Tet repressor and derepression of the promoter controlling expression of the hERG gene. Addition of Tet to the cell culture media results in expression of the hERG potassium channel.\nTo construct the HEK 293 T-REx HERG cell line, the hERG gene was ligated into the inducible expression vector pcDNA4/TO (→pc4TO-HERG) and transfected into HEK 293 T-REx cells (this cell line stably expresses the Tet repressor and was purchased at Invitrogen). Stable cell clones were isolated after selection with Blasticidin (5 μg/ml) and Zeocin™ (300 μg/ml). The clones were electrophysiological characterized after induction with 1 μg/ml Tet.\nExperiments were performed using the patch clamp set-up. Technical equipment needed for manipulation of the cells was placed on a vibration-isolated table and shielded with a Faraday cage to minimize electrical noise. The amplifier and control system were placed in a rack outside the Faraday cage. The system consisted of an EPC9 or EPC10 patch clamp amplifier (HEKA, Lambrecht, Germany), and the perfusion system DADVC8 (ALA Scientific, New York, USA) controlled by the Pulse software package (HEKA, Lambrecht, Germany) installed on a personal computer.\nThe cells used for this experiment were kept in continuous culture under standard conditions (37° C., air supplemented with 5% CO2). The HEK 293 T-REx HERG cells were kept in minimal essential medium (MEM) supplemented with 100 U/ml Penicillin, 100 μg/ml Streptomycin, 10% fetal calf serum (FCS), 1% non-essential amino acids (NEAA), 2.5 μg/ml amphotericin, 300 μg/ml Zeocin™ and 5 μg/ml Blasticidin. Cells were passed every 3-4 days after detachment using a Trypsin solution. The quality of the cultured cells was guaranteed by vitality and contamination tests.\nAt least 18 hours prior to electrophysiological experiments the cells were detached by application of iced PBS (phosphate buffered saline) or Trypsin and replated on cover slips. 1 μg/ml Tet was added to the cells to induce hERG expression.\nActivity of the cardiac hERG channel was investigated using the patch clamp technique in its whole cell mode. This means that the current needed for clamping the whole cell expressing the K^+-channel protein to a specific potential was measured. The pipettes used for patch clamping were made of borosilicate glass. Measurements were performed at room temperature (20-25° C.). In each experiment (i.e. each cell) only one concentration of the compound was investigated—no cumulative dosages were performed. Each cell acted as its own control. The effect of the compounds on hERG mediated currents was investigated at one concentration (10 μM) with two replicates each (c=1, n=2).\nBetween voltage pulses the cell was clamped to a holding potential of −80 mV (inside).\n(b) and (c) were used to characterize the properties of the hERG channel and to check the quality of the individual patch clamp experiment (voltage control). Each test protocol consisted of 6 segments."}},
  "data": [
    {"substance": "5-chloro-benzofuran-2- carboxylic acid 2,4- dimethoxy- benzylamide [Compound 2]", "values": [
      {"measurement": "dFRP Rat", "setting": "isolated rat left atria", "result": 17, "unit": "ms"},
      {"measurement": "dFRP Guinea Pig", "setting": "[1]", "result": 0, "unit": "ms"},
      {"measurement": "maximum prolongation of QTc", "setting": "[2]; 15 μmol/kg i.p., highest dose tested, Bazett, n=5", "result": 33, "unit": "ms"},
      {"measurement": "maximum prolongation of QT", "setting": "[2]; 15 μmol/kg i.p., highest dose tested, n=5", "result": 12, "unit": "ms"},
      {"measurement": "Heart rate (result in words)", "setting": "[2]; 3-15 μmol/kg i.p.", "result": "minor and not significant decrease"},
      {"measurement": "Locomotor activity (result in words)", "setting": "[2]; 3-15 μmol/kg i.p.", "result": "reproducible rise after each of the subsequent injections"},
      {"measurement": "PQ and QRS (result in words)", "setting": "[2]; 3-15 μmol/kg i.p.", "result": "did not show dose-dependent changes"},
      {"measurement": "IC50", "setting": "hERG potassium channel", "result": 16.7, "unit": "µM"},
      {"measurement": "Ratio hERG/Kv4.3", "setting": "hERG potassium channel", "result": 9.6}
    ]}
  ]
}
